Source: patent US6699877B2 (Gruenenthal GmbH, priority 2000, dated 2004)

Biological target: T1, glycine binding site of the NMDA receptor channel (Rattus norvegicus, UniProt P35439)
T1 construct: from tissue; host or cells: rat brain cortex and hippocampus membrane homogenate
Assay: Receptor binding, displacement of (3H)-MDL 105.519 on rat cerebral membrane homogenates
Settings: 10 μmol/l test substance, 1 nmol/l (3H)-MDL 105.519; for inhibition at 10 µM: read-out: Displacement (%, 10 μmol/l) of radioactive ligand from specific binding
Method: Receptor Binding (Glycine Binding Site of the NMDA Receptor Channel)
Experiments to determine the affinity of the compounds according to the invention of Formula I to the glycine binding site of the NMDA receptor channel were carried out on cerebral membrane homogenates (homogenate of Cortex- and Hippocampus-Areal from the brain of male rats, Wistar strain) (B. M. Baron, B. W. Siegel, B. L. Harrison, R. S. Gross, C. and P. Towers, Journal of Pharmacology and Experimental Therapeutics, Vol. 279, p. 62, 1996).
For this purpose, Cortex and Hippocampus from freshly removed rats' brains were dissected, homogenized in 5 mmol/l TRIS-acetate buffer, 0.32 mol/l sacharose pH 7.4 (10 ml/g fresh weight) with a Potter homogenizer (made by Braun/Melsungen, 10 piston strokes at 500 rpm) while cooling with ice and subsequently centrifuged for 10 minutes at 1,000 g and 4° C. The first supernatant material was collected and the sediment homogenized again with […] TRIS-acetate buffer, 0.32 mol/l safcharose pH 7.4 (5 ml/g original fresh weight) using the Potter homogenizer (10 piston strokes at 500 rpm) while cooling with ice and centrifuged for 10 minutes at 1,000 g and 4° C. The resultant supernatant material was combined with the supernatant material from the first centrifugation and centrifuged at 17,000 g for 20 minutes at 4° C. The supernatant material after this centrifugation was discarded, the membrane sediment taken up with 5 mmol/l TRIS-acetate buffer pH 8.0 (20 ml/g original fresh weight) and homogenized with 10 piston strokes at 500 rpm.
The membrane homogenate was then incubated for 1 hour at 4° C. and centrifuged for 30 minutes at 50,000 g and 4° C. The supernatant material was discarded and the centrifuge tube with the membrane sediment sealed with parafilm and frozen for 24 hours at −20° C. The membrane sediment was thawed on the following day, taken up with ice-cold 5 mmol/l TRIS-acetate buffer, 0.1% saponin (w/v) pH 7.0 (10 ml/g original fresh weight), homogenized with 10 piston strokes at 500 rpm and subsequently centrifuged for 20 minutes at 50,00 g and 4° C. The resultant supernatant material was discarded, the sediment taken up in a small volume with 5 mmol/l TRIS-acetate buffer pH 7.0 (about 2 ml/g original fresh weight) and homogenized again with 10 piston strokes at 500 rpm. After determining the protein content, the membrane homogenate was adjusted to a protein concentration of 10 mg protein/ml using 5 mmol/l TRIS-acetate buffer pH 7.0 and frozen in aliquots for testing.
For the receptor binding test, aliquots were thawed, diluted 1:10 with 5 mmol/l TRIS-acetate buffer pH 7.0, homogenized with 10 piston strokes at 500 rpm using the potter homogenizer (10 piston strokes at 500 rpm) while cooling with ice and centrifuged for 60 minutes at 55,000 g at 4° C. The supernatant material was decanted, the membrane sediment adjusted to a protein concentration of 1 mg/ml with ice-cold 50 mmol/l TRIS-acetate buffer pH 7.0, homogenized again with 10 piston strokes at 500 rpm and kept in suspension in the ice bath while stirring on a magnetic stirrer. 100 μl of this membrane homogenate per 1 ml of feedstock was used in each case in the receptor binding test (0.1 mg protein/ml in the final batch).
In the binding test, 50 mmol/l TRIS-acetate buffer pH 7.0 was used as buffer and 1 nmol/l (^3H)-MDL 105.519 (B. M. Baron et al 1996) was used as radioactive ligand. The proportion of unspecific binding was determined in the presence of 1 mmol/l glycine.
In further batches, the compounds according to the invention were added in concentration series and the displacement of the radioactive ligand from its specific binding to the glycine binding site of the NMDA receptor channel determined. The respective triple batches were incubated for 120 minutes at 4° C. and then harvested to determine the radioactive ligands bound to the membrane homogenate by filtration through glass fiber filter mats (GF/B). […]

inhibition at 10 µM	Displacement (%, 10 μmol/l) of radioactive ligand from specific binding	SMILES
70%	–	O=C(O)C1CC(c2ccc(Br)cc2)c2c(Cl)cc(Cl)cc2N1 (stereo not shown) [Example 40, 4-(4-bromophenyl)-5,7-dichloro-1 ,2,3,4-tetrahydroquinoline-2-carboxylic Acid]
38%	–	CCOC(=O)C1CC(c2cccc(C(F)(F)F)c2)c2c(Cl)cc(Cl)cc2N1 (stereo not shown) [Example 41, 5,7-dichloro-4-(3-trifluoromethylphenyl)-1,2,3,4-tetrahydroquinoline-2-carboxylic Acid Ethyl Ester]
21%	–	CCOC(=O)C1Nc2cc(Cl)cc(Cl)c2C(c2ccccc2)C1C (stereo not shown) [Example 42, 5,7-dichloro-3-methyl-4-phenyl-1,2,3,4-tetrahydroquinoline-2-carboxylic Acid Ethyl Ester]
21%	–	CCOC(=O)C1CC(c2ccc(F)cc2)c2cc(Cl)ccc2N1 (stereo not shown) [Example 51, 6-chloro-4-(4-fluorophenyl)-1,2,3,4-tetrahydroquinoline-2-carboxylic Acid Ethyl Ester]
22%	–	CCOC(=O)C1CC(c2ccccc2Cl)c2cc(Cl)ccc2N1 (stereo not shown) [Example 52, 6-chloro-4-(2-chlorophenyl)-1,2,3,4-tetrahydroquinoline-2-carboxylic Acid Ethyl Ester]
22%	–	CCOC(=O)C1CC(c2ccccc2Br)c2cc(Cl)ccc2N1 (stereo not shown) [Example 54, 6-chloro-4-(2-bromophenyl)-1,2,3,4-tetrahydroquinoline-2-carboxylic Acid Ethyl Ester]
14%	–	CCOC(=O)C1Nc2cc(Cl)cc(Cl)c2C2CCCC12 (stereo not shown) [Example 59, 7,9-dichloro-2,3,3a,4,5,9b-hexahydro-1H-cyclopenta[c]quinoline-4-carboxylic Acid Ethyl Ester]
23%	–	CCOC(=O)C1Nc2cc(Cl)cc(Cl)c2C2C3CCC(C3)C12 (stereo not shown) [Example 60, 1,3-dichloro-7,10-methano-5,6,6a,7,8,9,10,10a-octahydrophenanthridine-6-carboxylic Acid Ethyl Ester]
15%	–	CCOC(=O)C1Nc2cc(Cl)cc(Cl)c2C2c3ccccc3CC12 (stereo not shown) [Example 61]
66%	–	O=C(O)C1CC(c2ccc3ccccc3c2)c2cc(F)cc(Cl)c2N1 (stereo not shown) [Example 81, 8-chloro-6-fluoro-4-naphthalene-2-yl-1,2,3,4-tetrahydroquinoline-2-carboxylic acid]
96%	–	COc1ccc(C2c3cc(Oc4ccccc4)ccc3NC(C(=O)O)C2C)cc1 (stereo not shown) [Example 82, 4-(4-methoxyphenyl)-3-methyl-6-phenoxy-1,2,3,4-tetrahydroquinoline-2-carboxylic acid]
93%	–	Cc1cccc(C2CC(C(=O)O)Nc3c(F)cc(Cl)cc32)c1 (stereo not shown) [Example 83, 6-chloro-8-fluoro-4-m-tolyl-1,2,3,4-tetrahydroquinoline-2-carboxylic acid]
79%	–	Cc1cccc(C2CC(C(=O)O)Nc3c(Cl)cc(F)cc32)c1 (stereo not shown) [Example 84, 8-chloro-6-fluoro-4-m-tolyl-1,2,3,4-tetrahydroquinoline-2-carboxylic acid]
61%	–	O=C(O)C1CC(c2ccc(Br)cc2)c2cc(Cl)cc(F)c2N1 (stereo not shown) [Example 85, 4-(4-bromophenyl)-6-chloro-8-fluoro-1,2,3,4-tetrahydroquinoline-2-carboxylic acid]
33%	–	Cc1ccc(C2CC(C(=O)O)Nc3c2ccc(Cl)c3Cl)c(C)c1 (stereo not shown) [Example 86, 7,8-dichloro-4-(2,4-dimethylphenyl)-1,2,3,4-tetrahydroquinoline-2-carboxylic acid]
37%	–	O=C(O)C1CC(c2ccc(Cl)cc2)c2cc(Cl)c(C(F)(F)F)cc2N1 (stereo not shown) [Example 87, 6-chloro-4-(4-chlorophenyl)-7-trifluoromethyl-1,2,3,4-tetrahydroquinoline-2-carboxylic acid]

inhibition at 10 µM	Displacement (%, 10 μmol/l) of radioactive ligand from specific binding	SMILES
34%	–	CCOC(=O)C1Nc2ccc(C#N)cc2C2c3ccccc3CC12 (stereo not shown) [Example 88, 2-cyano-5,6a,7,11b-tetrahydro-6H-indeno[2,1-c]quinoline-6-carboxylic acid ethyl ester]
30%	–	N#Cc1ccc2c(c1)C(c1ccccc1Cl)CC(C(=O)O)N2 (stereo not shown) [Example 89, 4-(2-chlorophenyl)-6-cyano-1,2,3,4-tetrahydroquinoline-2-carboxylic acid]
46%	–	CCOC(=O)C1Nc2c(Cl)cc(Br)cc2C(c2ccccc2)C1C (stereo not shown) [Example 90, 6-bromo-8-chloro-3-methyl-4-phenyl-1,2,3,4-tetrahydroquinoline-2-carboxylic acid ethyl ester]
46%	–	Cc1ccc(C2CC(C(=O)O)Nc3c(Cl)cc(Br)cc32)c(C)c1 (stereo not shown) [Example 91, 6-bromo-8-chloro-4-(2,4-dimethylphenyl)-1,2,3,4-tetrahydroquinoline-2-carboxylic acid]
62%	–	O=C(O)C1CC(c2ccccc2Br)c2cc(Br)cc(Cl)c2N1 (stereo not shown) [Example 92, 6-bromo-4-(2-bromophenyl)-8-chloro-1,2,3,4-tetrahydroquinoline-2-carboxylic acid]
44%	–	COc1cc(C2c3cc(SC)ccc3NC(C(=O)O)C2C)ccc1O (stereo not shown) [Example 93, 4-(4-hydroxy-3-methoxyphenyl)-3-methyl-6-methylsulphanyl-1,2,3,4-tetrahydroquinoline-2-carboxylic acid]
55%	–	COc1ccc(C2c3cc(C#N)ccc3NC(C(=O)O)C2c2ccc(OC)cc2)cc1 (stereo not shown) [Example 94, 6-cyano-3,4-bis-(4-methoxyphenyl)-1,2,3,4-tetrahydroquinoline-2-carboxylic acid]
33%	–	CCOC(=O)C1Nc2c(Cl)cc(F)cc2C(c2ccc(OC)cc2)C1c1ccc(OC)cc1 (stereo not shown) [Example 95, 8-chloro-6-fluoro-3,4-bis-(4-methoxyphenyl)-1,2,3,4-tetrahydroquinoline-2-carboxylic acid ethyl ester]
29%	–	CCOC(=O)C1CC(c2ccc(OCc3ccccc3)c(OC)c2)c2cc(C(C)(C)C)ccc2N1 (stereo not shown) [Example 96, 4-(4-benzyloxy-3-methoxyphenyl)-6-tert-butyl-1,2,3,4-tetrahydroquinoline-2-carboxylic acid ethyl ester]
39%	–	O=C(O)C1CC(c2ccc(Cl)cc2)c2c(Cl)cc(Cl)cc2N1 (stereo not shown) [Example 97, 5,7-dichloro-4-(4-chlorophenyl)-1,2,3,4-tetrahydroquinoline-2-carboxylic acid]
51%	–	O=C(O)C1CC(c2cccc(Cl)c2)c2c(Cl)cc(Cl)cc2N1 (stereo not shown) [Example 98, 5,7-dichloro-4-(3-chlorophenyl)-1,2,3,4-tetrahydroquinoline-2-carboxylic acid]
–	43%	O=C(O)C1CC(c2ccc(Cl)cc2)c2c(Cl)cc(Cl)cc2N1 (stereo not shown) [Example 99, 5,7-dichloro-4-(4-chlorophenyl)-1,2,3,4-tetrahydroquinoline-2-carboxylic acid]
80%	–	O=C(O)C1Nc2cc(Cl)cc(Cl)c2C2c3ccccc3CCC12 (stereo not shown) [Example 100, 1,3-dichloro-5,6,6a,7,8,12b-hexahydrobenzo[k]phenanthridine-6-carboxylic acid]
98%	–	O=C(O)C1Nc2cc(Cl)cc(Cl)c2C2c3ccccc3CC12 (stereo not shown) [Example 101, 1,3-dichloro-5,6a,7,11b-tetrahydro-6H-indeno[2,1-c]quinoline-6-carboxylic acid]
61%	–	Cc1cc(C)cc(C2CC(C(=O)O)Nc3cc(Cl)cc(Cl)c32)c1 (stereo not shown) [Example 102, 5,7-dichloro-4-(3,5-dimethyl-phenyl)-1,2,3,4-tetrahydroquinoline-2-carboxylic acid]
